The target of the first data set is T1, GABA A receptor α5β3γ2 (α5 subunit) (Rattus norvegicus, UniProt P18508+P19969).
T1 construct: expressed in transfected cells; host or cells: SF9 insect cells (membrane preparation)
As to the kind of experiment: [3H]flumazenil ([3H]Ro 15-1788) competition binding assay, membranes of SF9 cells expressing rat GABA A receptors. The conditions noted are these: displacement of [3H]Ro 15-1788 (0.5 nM for α5), 1 hour at 4° C., means of two determinations; especially preferred compounds. On the procedure: The affinity of compounds at GABA A receptor subtypes was measured by competition for [^3H]flumazenil ([^3H]Ro 15-1788) (85 Ci/mmol; Amersham) binding to SF9 cells expressing rat receptors of composition α1β3γ2, α2β3γ2, α3β3γ2 and α5β3γ2.
Cell pellets were suspended in Krebs-tris buffer (4.8 mM KCl, 1.2 mM CaCl2, 1.2 mM MgCl2, 120 mM NaCl, 15 mM Tris; pH 7.5; binding assay buffer), homogenized by polytron for ca. 15 sec on ice and centrifuged in UZ for 30 min at 4° C. (100000 g; rotor: TFT 4594=[…]). The cell pellets were re-suspended in Krebs-tris buffer and homogenized by polytron for ca. 15 sec on ice. Aliquots of 1 ml were prepared, protein was measured (Bradford method) and the resulting membrane aliquots were stored at −70° C.
Radioligand binding assays were carried out in a volume of 200 μL (96-well plates) which contained 100 μL of cells, [^3H]Ro 15-1788 at a concentration of 1 nM for (α1, α2, α3 subunits and 0.5 nM for α5 subunits and the test compound in the range of 10^−10−3×10^−6 M. Nonspecific binding was defined by 10^−5 M diazepam and typically represented less than 5% of the total binding. Assays were incubated to equilibrium for 1 hour at 4° C. and harvested onto GF/C uni-filters (Packard) by filtration using a Packard harvester and washing with ice-cold wash buffer (50 mM Tris; pH 7.5). After drying, filter-retained radioactivity was detected by liquid scintillation counting. Ki values were calculated using Excel-Fit (Microsoft) and are the means of two determinations.
For orientation: In a radioligand displacement assay an active substance lowers the binding of a labelled ligand.
Broadly, the Ki is a measure of affinity in units of concentration, obtained from inhibition or displacement. On to “3-Bromo-6-methyl-9H-imidazo[1,5-a]pyrimido[5,4-d][1]benzazepine-10-carboxylic Acid Ethyl Ester [Example 22]”, for which the Ki turned out to be 12.5 nM.

On to “3-Fluoro-6-(1-methylethyl)-9H-imidazo[1,5-a]pyrimido[5,4-d][1]benzazepine-10-carboxylic Acid Ethyl Ester [Example 10]”, for which the affinity, expressed as Ki, was 11.2 nM. For “3-Fluoro-6-methyl-9H-imidazo[1,5-a]pyrimido[5,4-d][1]benzazepine-10-carboxylic Acid Ethyl Ester [Example 8]”, the Ki came out at 4.6 nM. Still for that read-out and setting: the figure for “3-Fluoro-6-propyl-9H-imidazo[1,5-a]pyrimido[5,4-d][1]benzazepine-10-carboxylic Acid Ethyl Ester [Example 9]” is 8 nM. In turn, “6-(1-Methylethyl)-9H-imidazo [1,5-a]pyrimido[5,4-d][1]benzazepine-10-carboxylic Acid Ethyl Ester [Example 3]” came in with a Ki of 8.9 nM. Take “6-Cyclopropyl-3-fluoro-9H-imidazo[1,5-a]pyrimido[5,4-d][1]benzazepine-10-carboxylic Acid Ethyl Ester [Example 11]”: the affinity, expressed as Ki, was 7.8 nM. In the case of “6-Cyclopropyl-9H-imidazo[1,5-a]pyrimido[5,4-d][1]benzazepine-10-carboxylic Acid Ethyl Ester [Example 4]”, the Ki stood at 7.6 nM. Same read-out and setting: the figure for “6-Methyl-9H-imidazo[1,5-a]pyrimido[5,4-d][1]benzazepine-10-carboxylic Acid Ethyl Ester [Example 29]” is 3.8 nM; for “6-Propyl-9H-imidazo[1,5-a]pyrimido[5,4-d][1]benzazepine-10-carboxylic Acid Ethyl Ester [Example 2]” it is 5.5 nM; for “6-[(4-Methoxyphenyl)Methyl]-9H-imidazo[1,5-a]pyrimido[5,4-d][1]benzazepine-10-carboxylic Acid Ethyl Ester [Example 6]” it is 13.8 nM. In turn, “9H-Imidazo[1,5-a]pyrimido[5,4-d][1]benzazepine-10-carboxylic Acid Ethyl Ester [Example 1]” yielded a Ki of 3.7 nM.

System in a further data set: not given
Assay: not given
Conditions: not given
As usually defined, the melting point is the temperature, or range, at which the solid turns liquid. `CCOC(=O)c1ncnc2c1Cc1cnc(C(C)(C)C)n1-c1cc(F)ccc1-2` gave a melting point of 233 °C. On the same count and under the same terms, in the case of `CCOC(=O)c1ncnc2c1Cc1cnc(Cc3ccc(OC)cc3)n1-c1cc(F)ccc1-2` it was 185 °C; in that of `CCOC(=O)c1ncnc2c1Cc1cnc(Cc3c[nH]c4ccccc34)n1-c1cc(F)ccc1-2`, 230 °C; in that of `CCOC(=O)c1ncnc2c1Cc1cnc(C(C)C)n1-c1cc(Cl)ccc1-2`, 192 °C. As for `CCOC(=O)c1ncnc2c1Cc1cnc(C3CC3)n1-c1cc(Cl)ccc1-2`, the melting point came to 230 °C. Still for that read-out and setting: the figure for `CCOC(=O)c1ncnc2c1Cc1cnc(C(C)(C)C)n1-c1cc(Cl)ccc1-2` is 180 °C; for `CCOC(=O)c1ncnc2c1Cc1cnc(Cc3ccc(OC)cc3)n1-c1cc(Cl)ccc1-2` it is 192 °C.

Turning to `CCOC(=O)c1ncnc2c1Cc1cnc(Cc3c[nH]c4ccccc34)n1-c1cc(Cl)ccc1-2`, the melting point was 120 °C. The same measure, in the same setting: in the case of `CCOC(=O)c1ncnc2c1Cc1cncn1-c1cc(Br)ccc1-2` it was 210 °C. Molecule `CCOC(=O)c1ncnc2c1Cc1cnc(C3CC3)n1-c1cc(Br)ccc1-2` displayed a melting point of 230 °C. On the same count and under the same terms, in the case of `CCOC(=O)c1ncnc2c1Cc1cnc(Cc3ccc(OC)cc3)n1-c1cc(Br)ccc1-2` it was 180 °C. Regarding `CCOC(=O)c1ncnc2c1Cc1cnc(C)n1-c1cc(C)ccc1-2`, the melting point was determined as 200 °C. `CCCc1ncc2n1-c1cc(C)ccc1-c1ncnc(C(=O)OCC)c1C2` registered a melting point of 250 °C. On the same count and under the same terms, in the case of `CCOC(=O)c1ncnc2c1Cc1cnc(C3CC3)n1-c1cc(C)ccc1-2` it was 250 °C; in that of `CCOC(=O)c1ncnc2c1Cc1cnc(-c3ccccc3)n1-c1ccccc1-2`, 244 to 246 °C. The same measure, in the same setting: in the case of `Cc1ncc2n1-c1ccccc1-c1ncnc(C(=O)O)c1C2` it was 285 to 287 °C. For `Cc1ncc2n1-c1ccccc1-c1ncnc(-c3nc(C4CC4)no3)c1C2`, the melting point was 216 to 218 °C. Same read-out and setting: in the case of `CCOC(=O)c1ncnc2c1Cc1cnc(C)n1-c1cc(C)c(C)cc1-2` it was 210 °C; in that of `CCCc1ncc2n1-c1cc(C)c(C)cc1-c1ncnc(C(=O)OCC)c1C2`, 213 °C. `CCOC(=O)c1ncnc2c1Cc1cnc(Cc3ccc(OC)cc3)n1-c1cc(C)c(C)cc1-2` had a melting point of 150 °C. Same read-out and setting: in the case of `CCOC(=O)c1ncnc2c1Cc1cnc(Cc3c[nH]c4ccccc34)n1-c1cc(C)c(C)cc1-2` it was 135 °C; in that of `CCOC(=O)c1ncnc2c1Cc1cnc(C(C)(C)C)n1-c1ccccc1-2`, 250 °C; in that of `CCOC(=O)c1ncnc2c1Cc1cnc(Cc3c[nH]c4ccccc34)n1-c1ccccc1-2`, 120 °C.

Values taken from patent publication US6686352B2, “Substituted imidazo [1,5-a] pyrimido [5,4-d] [1] benzazepine derivatives” (Hoffmann-La Roche Inc., priority 2001, dated 2004).
